The results in this text go back to ChEMBL document CHEMBL1132266, “Synthesis and evaluation of 1-position-modified inositol 1,4,5-trisphosphate analogs” (Bioorg Med Chem Lett, 1999).

Sequence of Inositol 1,4,5-trisphosphate-gated calcium channel ITPR3 (Q14573 whole entry, the tested form may be a part): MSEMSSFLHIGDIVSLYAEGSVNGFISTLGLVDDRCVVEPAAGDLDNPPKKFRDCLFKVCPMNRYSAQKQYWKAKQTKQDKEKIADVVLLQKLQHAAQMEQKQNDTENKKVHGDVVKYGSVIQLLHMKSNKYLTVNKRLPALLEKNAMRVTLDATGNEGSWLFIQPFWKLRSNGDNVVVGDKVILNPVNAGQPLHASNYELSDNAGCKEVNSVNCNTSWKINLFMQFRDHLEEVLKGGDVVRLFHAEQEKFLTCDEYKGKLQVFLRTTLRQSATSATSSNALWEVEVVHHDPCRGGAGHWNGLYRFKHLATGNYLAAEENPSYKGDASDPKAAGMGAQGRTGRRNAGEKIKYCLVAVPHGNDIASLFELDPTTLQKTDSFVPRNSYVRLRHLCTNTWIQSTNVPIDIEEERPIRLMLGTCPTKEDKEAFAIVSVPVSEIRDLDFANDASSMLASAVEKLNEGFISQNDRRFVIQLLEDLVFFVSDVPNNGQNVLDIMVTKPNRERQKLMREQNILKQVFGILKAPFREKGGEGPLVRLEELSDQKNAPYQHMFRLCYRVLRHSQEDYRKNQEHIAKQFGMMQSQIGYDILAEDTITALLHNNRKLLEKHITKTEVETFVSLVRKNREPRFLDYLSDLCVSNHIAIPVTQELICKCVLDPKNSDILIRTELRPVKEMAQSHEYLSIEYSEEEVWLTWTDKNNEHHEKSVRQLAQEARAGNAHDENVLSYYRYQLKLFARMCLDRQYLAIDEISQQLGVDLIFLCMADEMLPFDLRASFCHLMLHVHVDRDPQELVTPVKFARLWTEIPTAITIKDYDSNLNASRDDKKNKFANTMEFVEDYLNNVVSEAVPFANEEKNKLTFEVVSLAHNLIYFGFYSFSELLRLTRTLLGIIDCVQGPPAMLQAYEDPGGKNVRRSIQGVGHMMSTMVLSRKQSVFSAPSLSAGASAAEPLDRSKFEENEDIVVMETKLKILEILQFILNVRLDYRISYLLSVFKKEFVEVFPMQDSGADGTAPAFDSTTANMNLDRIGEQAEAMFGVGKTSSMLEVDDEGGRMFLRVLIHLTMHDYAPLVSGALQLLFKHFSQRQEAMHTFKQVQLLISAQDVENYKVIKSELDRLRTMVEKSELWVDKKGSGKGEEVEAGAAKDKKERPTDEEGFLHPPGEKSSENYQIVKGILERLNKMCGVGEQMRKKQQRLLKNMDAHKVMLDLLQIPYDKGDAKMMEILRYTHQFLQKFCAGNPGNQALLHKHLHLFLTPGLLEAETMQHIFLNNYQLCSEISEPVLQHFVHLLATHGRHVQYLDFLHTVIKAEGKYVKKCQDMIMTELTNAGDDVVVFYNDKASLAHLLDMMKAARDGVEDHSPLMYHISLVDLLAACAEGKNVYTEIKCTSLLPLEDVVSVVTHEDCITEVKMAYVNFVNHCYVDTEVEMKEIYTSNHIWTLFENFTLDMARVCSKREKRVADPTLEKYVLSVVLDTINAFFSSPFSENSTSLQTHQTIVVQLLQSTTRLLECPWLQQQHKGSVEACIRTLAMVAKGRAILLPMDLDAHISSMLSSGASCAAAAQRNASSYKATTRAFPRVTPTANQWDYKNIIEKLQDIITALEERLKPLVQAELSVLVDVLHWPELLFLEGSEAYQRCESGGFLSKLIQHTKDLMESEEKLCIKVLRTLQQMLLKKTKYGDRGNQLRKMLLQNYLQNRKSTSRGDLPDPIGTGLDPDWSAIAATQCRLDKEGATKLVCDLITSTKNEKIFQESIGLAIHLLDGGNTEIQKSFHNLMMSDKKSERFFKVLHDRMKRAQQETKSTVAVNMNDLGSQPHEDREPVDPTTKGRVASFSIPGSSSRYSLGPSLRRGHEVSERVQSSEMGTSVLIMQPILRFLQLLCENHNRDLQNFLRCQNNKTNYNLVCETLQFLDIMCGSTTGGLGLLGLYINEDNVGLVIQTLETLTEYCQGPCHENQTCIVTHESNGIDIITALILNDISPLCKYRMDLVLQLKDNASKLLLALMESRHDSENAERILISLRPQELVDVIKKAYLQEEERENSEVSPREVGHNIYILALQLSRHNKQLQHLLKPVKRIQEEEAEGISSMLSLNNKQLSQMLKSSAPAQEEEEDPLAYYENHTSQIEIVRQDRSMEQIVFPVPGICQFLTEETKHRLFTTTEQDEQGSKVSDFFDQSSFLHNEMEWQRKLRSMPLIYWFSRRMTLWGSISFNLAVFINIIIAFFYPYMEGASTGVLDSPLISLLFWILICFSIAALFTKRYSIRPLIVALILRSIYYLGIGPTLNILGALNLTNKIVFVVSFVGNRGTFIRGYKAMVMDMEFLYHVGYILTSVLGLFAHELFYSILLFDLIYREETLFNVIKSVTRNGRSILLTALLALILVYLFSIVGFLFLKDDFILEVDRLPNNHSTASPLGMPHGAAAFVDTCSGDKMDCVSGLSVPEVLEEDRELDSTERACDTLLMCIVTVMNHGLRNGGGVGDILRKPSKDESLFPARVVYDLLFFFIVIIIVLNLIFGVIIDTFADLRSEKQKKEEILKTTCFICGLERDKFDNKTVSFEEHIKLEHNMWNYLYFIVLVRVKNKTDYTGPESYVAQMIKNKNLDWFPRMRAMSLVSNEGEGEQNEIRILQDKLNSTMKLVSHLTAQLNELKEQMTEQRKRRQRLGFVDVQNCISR

The assay addresses Inositol 1,4,5-trisphosphate-gated calcium channel ITPR3 (Homo sapiens, UniProt Q14573). Put plainly: Dissociation constant of compound was measured in IP3-binding domain(IBD) of human Inositol 1,4,5-trisphosphate receptor at pH 7.4.
On to `O=C(NCCCOP(=O)(O)O[C@@H]1[C@H](O)[C@H](O)[C@@H](OP(=O)(O)O)[C@H](OP(=O)(O)O)[C@H]1O)Oc1ccc2c(c1)Oc1cc(O)ccc1C21OC(=O)c2ccccc21` (stereo partly drawn), for which the dissociation constant (Kd) (in general, a measure of binding affinity in units of concentration) is 188 nM.

For `CN(C)c1ccc(C(=C2C=CC(=[N+](C)C)C=C2)c2ccc(C(=O)NCCCOP(=O)(O)O[C@@H]3[C@H](O)[C@H](O)[C@@H](OP(=O)(O)O)[C@H](OP(=O)(O)O)[C@H]3O)cc2)cc1`, the dissociation constant Kd amounted to 1.17 nM. With `NCCCOP(=O)(O)O[C@@H]1[C@H](O)[C@H](O)[C@@H](OP(=O)(O)O)[C@H](OP(=O)(O)O)[C@H]1O` the figure was 1120 nM.
